Experiments:
Assay in all cases: relative viability (nuclei count vs DMSO), 5 days (fraction); higher = more cells survive
[1] = compound: CCN(CC)CCCCNc1ncc2cc(-c3cc(OC)cc(OC)c3)c(NC(=O)NC(C)(C)C)nc2n1
Procedure, shortened: (§1)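 A plate was accepted only when its control CV was below 25% and the cells had doubled at least once. Viability is defined from nuclear counts as treated wells divided by vehicle wells, with the median taken across plates. That median covers lung cancer cell lines grown in 1536-well plates, dosed by pinning at five √10-spaced library-drug concentrations, and counted in MetaXpress from 4× Hoechst images after 5 days.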

[2] = compound: COc1nc(C)cnc1NS(=O)(=O)c1cccnc1-c1ccc(-c2nnco2)cc1 [Zibotentan]
Procedure, shortened: as §1

[3] = compound: COCC1(CO)C(=O)C2CCN1CC2 [PRIMA-1MET]
Procedure, shortened: as §1

[4] = compound: O=c1cc(-c2cccc3c2Sc2ccccc2S3)oc(N2CCOCC2)c1
Procedure, shortened: as §1

[5] = compound: C1COCCN1C2=CC(=O)C3=C(O2)C(=CC=C3)C4=CC=CC5=C4SC6=CC=CC=C56
Procedure, shortened: as §1

| Cell Line | relative viability ([1]; 0.01 µM) | relative viability ([1]; 0.03162 µM) | relative viability ([1]; 0.1 µM) | relative viability ([1]; 0.3162 µM) | relative viability ([1]; 1 µM) | relative viability ([2]; 0.08 µM) | relative viability ([2]; 0.253 µM) | relative viability ([2]; 0.8 µM) | relative viability ([2]; 2.53 µM) | relative viability ([3]; 0.2 µM) | relative viability ([3]; 0.6325 µM) | relative viability ([3]; 2 µM) | relative viability ([3]; 6.325 µM) | relative viability ([3]; 20 µM) | relative viability ([4]; 0.08 µM) | relative viability ([4]; 0.253 µM) | relative viability ([4]; 0.8 µM) | relative viability ([4]; 2.53 µM) | relative viability ([4]; 8 µM) | relative viability ([5]; 0.01 µM) | relative viability ([5]; 0.03162 µM) | relative viability ([5]; 0.1 µM) | relative viability ([5]; 0.3162 µM) | relative viability ([5]; 1 µM) |
| --- | --- | --- | --- | --- | --- | --- | --- | --- | --- | --- | --- | --- | --- | --- | --- | --- | --- | --- | --- | --- | --- | --- | --- | --- |
| NCI-H1915 | 1.08 | 1.04 | 1.02 | 1.12 | 1.01 | 1.06 | 0.986 | 0.973 | 1.01 | 0.954 | 0.859 | 0.734 | 1 | 0.957 | 0.988 | 1.02 | 1.13 | 0.993 | 1.04 | 1.04 | 1.08 | 1.06 | 0.995 | 1.05 |
| NCI-H838 | 0.99 | 0.971 | 1.01 | 0.97 | 0.643 | 0.962 | 0.87 | 0.987 | 0.998 | 1.05 | 0.946 | 0.841 | 1.08 | 0.659 | 0.979 | 1.09 | 0.862 | 0.947 | 0.887 | 1.04 | 0.966 | 0.98 | 0.99 | 0.893 |
| NCI-H1623 | 0.951 | 0.888 | 0.913 | 0.993 | 0.933 | 0.936 | 0.744 | 1.05 | 0.85 | 1.07 | 0.943 | 0.926 | 0.997 | 0.598 | 1.03 | 0.981 | 0.957 | 0.944 | 1.07 | 0.939 | 0.932 | 0.888 | 0.931 | 0.888 |
| NCI-H1648 | 1.02 | 1.16 | 0.927 | 0.656 | 0.544 | 1.04 | 0.786 | 0.84 | 0.932 | 0.852 | 0.715 | 1.07 | 0.722 | 0.75 | 0.742 | 1.16 | 0.792 | 0.591 | 0.921 | 0.861 | 1.03 | 1.14 | 0.932 | 0.959 |
| SW 900 | 0.907 | 1.11 | 0.804 | 1.02 | 0.717 | 0.918 | 0.75 | 0.851 | 0.921 | 0.984 | 0.757 | 0.637 | 0.804 | 0.0765 | 0.622 | 0.892 | 0.942 | 0.809 | 0.774 | 0.793 | 0.811 | 0.721 | 0.942 | 0.853 |
| NCI-H1792 | 0.979 | 0.976 | 1.04 | 1.25 | 0.521 | 0.998 | 0.763 | 0.879 | 0.943 | 0.923 | 0.804 | 0.677 | 0.924 | 0.778 | 0.904 | 1.06 | 0.783 | 0.864 | 0.863 | 0.939 | 0.99 | 0.908 | 0.91 | 0.868 |
| NCI-H522 | 1.11 | 1.05 | 0.914 | 0.96 | 0.907 | 0.839 | 0.957 | 0.904 | 0.867 | 0.888 | 0.804 | 0.921 | 0.886 | 0.279 | 0.888 | 1.01 | 0.798 | 0.908 | 0.967 | 1.09 | 0.992 | 0.889 | 1.21 | 0.984 |
| NCI-H2170 | 1.08 | 0.976 | 1.02 | 1.05 | 1 | 0.997 | 0.992 | 0.968 | 1 | 1.02 | 0.848 | 0.971 | 1.07 | 0.946 | 0.946 | 1.05 | 1 | 0.911 | 0.991 | 0.969 | 1.02 | 0.973 | 0.947 | 0.965 |
| HCC-366 | 1.03 | 1.05 | 1.13 | 1.02 | 1 | 1.03 | 0.992 | 0.877 | 1.01 | 1.08 | 0.991 | – | 1.06 | 0.854 | 0.999 | 1.08 | 1.09 | 1.03 | 1.06 | 1.02 | 1.01 | 1.09 | 1.02 | 1.02 |
| ChaGo-K-1 | 1.02 | 0.967 | 1.11 | 1.02 | 0.941 | 1.04 | 0.983 | 0.743 | 0.943 | 0.994 | 0.814 | 0.98 | 1 | 0.884 | 0.975 | 0.953 | 1.03 | 0.935 | 1.08 | 1.03 | 0.956 | 0.95 | 1.04 | 0.954 |
| NCI-H2347 | 0.998 | 1.01 | 1.12 | 1.15 | 0.931 | 1.04 | 0.95 | 1.12 | 1.06 | 0.961 | 0.959 | 0.779 | 1.11 | 1.02 | 0.96 | 1.07 | 1.1 | 1.13 | 1.13 | 1.11 | 0.979 | 0.957 | 0.981 | 0.988 |
| NCI-H1437 | 1.08 | 0.979 | 1.08 | 1.11 | 0.945 | 1.02 | 0.882 | 0.964 | 0.995 | 1.03 | 0.859 | 0.971 | 1 | 0.96 | 1.01 | 1.16 | 1.11 | 0.918 | 1.18 | 0.955 | 0.98 | 1.02 | 1.05 | 0.959 |
| NCI-H2087 | 1.02 | 0.966 | 1.16 | 1.03 | 0.942 | 0.934 | 1.02 | 1.16 | 1.05 | 0.687 | 0.883 | 0.912 | 1.17 | 0.773 | 0.958 | 1.15 | 1.12 | 0.835 | 1.13 | 1.11 | 1.08 | 1.01 | 0.977 | 1.05 |
| BEN | 1 | 0.89 | 1 | 1.01 | 0.816 | 1.06 | 0.782 | 0.936 | 0.941 | 0.982 | 0.825 | – | 1.06 | 1.01 | 0.876 | 0.931 | 0.946 | 0.996 | 1.18 | 0.919 | 1.04 | 0.931 | 1.04 | 0.897 |
| NCI-H2126 | 1.02 | 0.992 | 1.06 | 1.07 | 0.983 | 1.01 | 0.965 | 0.913 | 1.05 | 1.03 | 0.978 | 0.901 | 1.03 | 0.978 | 0.986 | 1.03 | 0.862 | 0.932 | 1.03 | 0.972 | 1 | 1 | 1.01 | 0.98 |
| NCI-H647 | 0.94 | 1 | 1.04 | 1.1 | 0.903 | 0.964 | 0.83 | 0.887 | 0.993 | 1.11 | 0.824 | 0.783 | 1.04 | 0.762 | 0.937 | 1.2 | 1.02 | 0.855 | 1.01 | 0.911 | 0.918 | 0.867 | 1.05 | 0.986 |
| EPLC-272H | 1.04 | 0.686 | 1.03 | 1.05 | 0.703 | 0.945 | 1.07 | 0.863 | 0.911 | 0.862 | 0.839 | 0.943 | 1.03 | 0.831 | 0.936 | 0.939 | 0.959 | 0.907 | 1.18 | 1.01 | 0.947 | 0.676 | 1.04 | 0.87 |
| NCI-H1975 | 0.993 | 0.87 | 1.01 | 1.2 | 0.882 | 0.966 | 0.882 | 0.892 | 1.01 | 1.05 | 0.937 | 0.847 | 1.04 | 0.753 | 0.907 | 1.12 | 0.836 | 0.936 | 0.966 | 0.941 | 0.985 | 0.866 | 0.97 | 1.04 |
| HCC-78 | 0.879 | 0.906 | 1.06 | 1.08 | 0.917 | 1.03 | 0.942 | 0.937 | 0.782 | 1.15 | 0.925 | 0.724 | 1.03 | 0.474 | 0.949 | 1.09 | 0.75 | 0.871 | 1.03 | 1.07 | 0.94 | 0.856 | 0.886 | 0.774 |
| NCI-H358 | 0.899 | 0.933 | 1.05 | 1.15 | 0.815 | 0.954 | 0.675 | 0.924 | 0.956 | 1.09 | 0.775 | 0.829 | 1.07 | 0.451 | 0.807 | 1.04 | 0.985 | 0.988 | 0.888 | 0.857 | 0.93 | 1.04 | 1.07 | 1.05 |
| LCLC-97TM1 | 0.725 | 0.81 | 1.11 | 1.03 | 0.864 | 0.979 | 0.86 | 1.06 | 1.04 | 0.845 | 0.738 | 1.03 | 0.963 | 0.468 | 0.971 | 0.962 | 0.929 | 0.794 | 1.09 | 0.978 | 0.973 | 0.969 | 0.953 | 1.04 |
| Calu-6 | 0.989 | 1.1 | 1.11 | 1.11 | 1.02 | 1.04 | 0.932 | 0.979 | 1 | 1.06 | 0.977 | 0.97 | 0.948 | 0.812 | 1 | 1.1 | 1.05 | 0.955 | 0.924 | 1.05 | 1.06 | 1.08 | 1.01 | 1.05 |
